Data published in patent publication US8846601B2, “Melanocortin receptor-specific peptides” (Palatin Technologies, Inc., priority 2009, dated 2014).
Like-named read-outs stand apart in the source and are kept apart here. Peptide text beside a SMILES is read from it.

Tests used:
hMC4-R [1] = molecular target: T1, hMC4-R (Homo sapiens (Human), UniProt P32245); experiment: Assay for agonist activity: cAMP accumulation in HEK-293 cells that express hMC4-R; details: for functional status at MC4-R (agonist / partial agonist): agonist = intrinsic activity 70% or higher, partial agonist 10-70%
T1 sequence (P32245 whole entry): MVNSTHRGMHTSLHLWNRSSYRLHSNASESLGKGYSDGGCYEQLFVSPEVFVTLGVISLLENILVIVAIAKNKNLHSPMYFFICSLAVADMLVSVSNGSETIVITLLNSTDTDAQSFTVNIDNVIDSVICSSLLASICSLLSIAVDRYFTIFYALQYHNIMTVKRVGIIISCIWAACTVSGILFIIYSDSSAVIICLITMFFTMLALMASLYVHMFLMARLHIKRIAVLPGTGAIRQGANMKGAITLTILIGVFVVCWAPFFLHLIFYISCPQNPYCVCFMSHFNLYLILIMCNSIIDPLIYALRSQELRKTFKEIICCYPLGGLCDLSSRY
Method: By “intrinsic activity” is meant the maximal functional activity achievable by a compound in a specified melanocortin receptor expressing cell system, such as the maximal stimulation of adenylyl cyclase.
Accumulation of intracellular cAMP was examined as a measure of the ability of the peptides of the present invention to elicit a functional response in HEK-293 cells that express MC4-R. Confluent HEK-293 cells that express recombinant hMC4-R were detached from culture plates by incubation in enzyme-free cell dissociation buffer. Dispersed cells were suspended in Earle's Balanced Salt Solution containing 10 mM HEPES (pH 7.5), 1 mM MgCl2, 1 mM glutamine, 0.5% albumin and 0.3 mM 3-isobutyl-1-methyl-xanthine (IBMX), a phosphodiesterase inhibitor. […] Cells were exposed for 15 minutes at 37° C. to peptides of the present invention dissolved in DMSO (final DMSO concentration of 1%) at a concentration range of 0.05-5000 nM in a total assay volume of 200 μL. […] Data analysis was performed by nonlinear regression analysis with Graph-Pad Prism® software. The maximum efficacies of the test peptides of the present invention were compared to that achieved by the reference melanocortin agonist NDP-αMSH.

[2] = molecular target: MC1-R (B-16 mouse melanoma cells) (Mus musculus (Mouse), UniProt Q01727); experiment: Competitive binding using Eu-labeled NDP-α-MSH, MC1-R
Chain of MC1-R (B-16 mouse melanoma cells) (Q01727 whole entry): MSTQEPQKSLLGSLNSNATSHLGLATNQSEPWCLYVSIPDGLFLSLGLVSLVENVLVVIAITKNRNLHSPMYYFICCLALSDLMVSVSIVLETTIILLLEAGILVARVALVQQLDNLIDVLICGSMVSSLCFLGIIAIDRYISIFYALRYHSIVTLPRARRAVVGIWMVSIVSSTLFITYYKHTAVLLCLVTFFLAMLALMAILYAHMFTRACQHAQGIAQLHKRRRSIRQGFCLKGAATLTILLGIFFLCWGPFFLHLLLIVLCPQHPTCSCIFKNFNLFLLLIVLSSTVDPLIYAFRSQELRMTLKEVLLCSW
Method: A competitive inhibition binding assay is performed using membrane homogenates prepared from HEK-293 cells that express recombinant hMC4-R, hMC3-R, or hMC5-R, and from B-16 mouse melanoma cells (containing endogenous MC1-R). In some instances, HEK-293 cells that express recombinant hMC1-R were employed. In the examples that follow, all MC3-R, MC4-R and MC5-R values are for human recombinant receptors. MC1-R values are for B-16 mouse melanoma cells, unless the heading is “hMC1-R”, in which case the value is for human recombinant MC1-R. Assays were performed in 96 well GF/B Millipore multiscreen filtration plates (MAFB NOB10) pre-coated with 0.5% bovine serum albumin (Fraction V). Membrane homogenates were incubated with 0.2 nM (for hMC4-R) 0.4 nM (for MC3-R and MC5-R) or 0.1 nM (for mouse B16 MC1-R or hMC1-R) [I^125]-NDP-α-MSH (Perkin Elmer) and increasing concentrations of test peptides of the present invention in buffer containing 25 mM HEPES buffer (pH 7.5) with 100 mM NaCl, 2 mM CaCl2, 2 mM MgCl2, 0.3 mM 1,10-phenanthroline, and 0.2% bovine serum albumin. After incubation for 60 minutes at 37° C., the assay mixture was filtered and the membranes washed three times with ice-cold buffer. Filters were dried and counted in a gamma counter for bound radioactivity. […] Maximal specific binding (100%) was defined as the difference in radioactivity (cpm) bound to cell membranes in the absence and presence of 1 μM NDP-α-MSH. […] Ki values for test peptides of the present invention were determined using Graph-Pad Prism® curve-fitting software.
Alternatively, a competitive inhibition binding assay was performed employing Eu-NDP-α-MSH (PerkinElmer Life Sciences catalog No. AD0225) with determination by time-resolved fluorometry (TRF) of the lanthanide chelate. […] The plates were incubated on a shaker for 15 minutes and read at 340 nm excitation and 615 nm emission wavelengths. […] Ki values were determined by curve-fitting with Graph-Pad Prism® software using a one-site fixed-slope competition binding model.

Male Sprague-Dawley rats = experiment: Rat feeding studies: food intake and body weight change; format: in vivo; details: for decrease in food consumption compared to control: rats
Method: Change in food intake and body weight was evaluated for selected peptides administered by intravenous (IV) or subcutaneous injection routes. Male Sprague-Dawley rats were obtained from Hilltop Lab Animals, Inc. (Scottsdale, Pa.) or other vendors. Animals were individually housed in conventional polystyrene hanging cages and maintained on a controlled 12 hour on/off light cycle. Water and pelleted food was provided ad libitum. The rats were dosed IV with vehicle or selected peptides (0.3 to 1.0 mg/kg), or dosed subcutaneously with vehicle or selected peptides (doses up to 30 mg/kg). […] The changes in body weight and food intake for the 48 hour and 72 hour periods after dosing can also be measured to determine reversal of changes in body weight and food intake effects back to baseline levels.

hMC3-R = hMC3-R (Homo sapiens (Human), UniProt P41968); experiment: Competitive binding using Eu-labeled NDP-α-MSH, MC3-R
Chain of hMC3-R (P41968 whole entry): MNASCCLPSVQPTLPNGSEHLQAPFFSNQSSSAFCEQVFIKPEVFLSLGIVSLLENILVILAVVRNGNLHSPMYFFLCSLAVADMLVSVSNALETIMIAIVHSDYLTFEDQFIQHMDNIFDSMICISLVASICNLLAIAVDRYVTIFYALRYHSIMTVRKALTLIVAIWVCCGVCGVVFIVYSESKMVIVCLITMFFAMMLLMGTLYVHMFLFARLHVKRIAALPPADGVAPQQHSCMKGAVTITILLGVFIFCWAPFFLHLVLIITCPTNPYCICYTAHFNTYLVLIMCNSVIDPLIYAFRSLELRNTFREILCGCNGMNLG
Method: A competitive inhibition binding assay is performed using membrane homogenates prepared from HEK-293 cells that express recombinant hMC4-R, hMC3-R, or hMC5-R, and from B-16 mouse melanoma cells (containing endogenous MC1-R). In some instances, HEK-293 cells that express recombinant hMC1-R were employed. In the examples that follow, all MC3-R, MC4-R and MC5-R values are for human recombinant receptors. MC1-R values are for B-16 mouse melanoma cells, unless the heading is “hMC1-R”, in which case the value is for human recombinant MC1-R. Assays were performed in 96 well GF/B Millipore multiscreen filtration plates (MAFB NOB10) pre-coated with 0.5% bovine serum albumin (Fraction V). […] Filters were dried and counted in a gamma counter for bound radioactivity. […] Maximal specific binding (100%) was defined as the difference in radioactivity (cpm) bound to cell membranes in the absence and presence of 1 μM NDP-α-MSH. […] Ki values for test peptides of the present invention were determined using Graph-Pad Prism® curve-fitting software.
Alternatively, a competitive inhibition binding assay was performed employing Eu-NDP-α-MSH (PerkinElmer Life Sciences catalog No. AD0225) with determination by time-resolved fluorometry (TRF) of the lanthanide chelate. […] The plates were incubated on a shaker for 15 minutes and read at 340 nm excitation and 615 nm emission wavelengths. […]

hMC4-R [3] = molecular target: T1, hMC4-R; experiment: Competitive inhibition binding assay using [I125]-NDP-α-MSH, hMC4-R membranes
Method: (§1) A competitive inhibition binding assay is performed using membrane homogenates prepared from HEK-293 cells that express recombinant hMC4-R, hMC3-R, or hMC5-R, and from B-16 mouse melanoma cells (containing endogenous MC1-R). In some instances, HEK-293 cells that express recombinant hMC1-R were employed. In the examples that follow, all MC3-R, MC4-R and MC5-R values are for human recombinant receptors. […] Membrane homogenates were incubated with 0.2 nM (for hMC4-R) 0.4 nM (for MC3-R and MC5-R) or 0.1 nM (for mouse B16 MC1-R or hMC1-R) [I^125]-NDP-α-MSH (Perkin Elmer) and increasing concentrations of test peptides of the present invention in buffer containing 25 mM HEPES buffer (pH 7.5) with 100 mM NaCl, 2 mM CaCl2, 2 mM MgCl2, 0.3 mM 1,10-phenanthroline, and 0.2% bovine serum albumin. After incubation for 60 minutes at 37° C., the assay mixture was filtered and the membranes washed three times with ice-cold buffer. Filters were dried and counted in a gamma counter for bound radioactivity. […] Maximal specific binding (100%) was defined as the difference in radioactivity (cpm) bound to cell membranes in the absence and presence of 1 μM NDP-α-MSH. […] Each assay was conducted in triplicate and the actual mean values are described, with results less than 0% reported as 0%. Ki values for test peptides of the present invention were determined using Graph-Pad Prism® curve-fitting software.

hMC4-R [4] = molecular target: T1, hMC4-R; experiment: Competitive binding assay using Eu-NDP-α-MSH (TRF), hMC4-R membranes; details: averaged; Eu-NDP-α-MSH (values marked *); read-out: MC4-R Ki
Method: Alternatively, a competitive inhibition binding assay was performed employing Eu-NDP-α-MSH (PerkinElmer Life Sciences catalog No. AD0225) with determination by time-resolved fluorometry (TRF) of the lanthanide chelate. […] After incubation for 90 minutes at 37° C., the reaction was stopped by filtration over AcroWell 96-well filter plates (Pall Life Sciences). The filter plates were washed 4 times with 200 μL of ice-cold phosphate-buffered saline. DELFIA Enhancement solution (PerkinElmer Life Sciences) was added to each well. […] Each assay was conducted in duplicate and mean values were utilized. Ki values were determined by curve-fitting with Graph-Pad Prism® software using a one-site fixed-slope competition binding model.

hMC1-R [5] = molecular target: T2, hMC1-R (Homo sapiens (Human), UniProt Q01726); experiment: Competitive inhibition binding assay, human recombinant MC1-R
T2 sequence (Q01726 whole entry): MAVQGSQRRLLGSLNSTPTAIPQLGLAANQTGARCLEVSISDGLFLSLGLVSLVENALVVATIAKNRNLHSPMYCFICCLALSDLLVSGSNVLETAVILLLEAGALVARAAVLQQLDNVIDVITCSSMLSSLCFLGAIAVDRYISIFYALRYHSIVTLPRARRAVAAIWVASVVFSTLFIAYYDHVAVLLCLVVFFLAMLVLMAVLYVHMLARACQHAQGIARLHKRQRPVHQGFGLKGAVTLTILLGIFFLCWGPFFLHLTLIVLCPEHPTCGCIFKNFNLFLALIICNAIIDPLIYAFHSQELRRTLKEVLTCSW
Method: as §1

hMC1-R [6] = molecular target: T2, hMC1-R; experiment: Functional assay (EC50 and intrinsic activity) at hMC1-R; format: cell-based
[7] = averaged, [I125]-NDP-α-MSH (values not marked *), read-out: MC4-R Ki

SMILES	functional status at MC4-R (agonist / partial agonist) (hMC4-R [1])	Ki (hMC4-R [3]; [7]) [nM]	Ki (hMC4-R [3]; read-out: hMC4-R (Ki)) [nM]	EC50 (hMC4-R [1]) [nM]	Ki (hMC4-R [4]) [nM]	Ki (hMC1-R [5]) [nM]	EC50 (hMC1-R [6]) [nM]	other results
CC(=O)N[C@@H](CCCNC(=N)N)C(=O)N[C@H]1CC(=O)NCCCC[C@@H](C(N)=O)NC(=O)[C@H](Cc2c[nH]c3ccccc23)NC(=O)[C@H](CCCNC(=N)N)NC(=O)[C@@H](Cc2ccccc2)NC(=O)[C@H](C(C)C)NC1=O [Peptide No. 16, Ac-Arg-cyclo(Asp-Val- D-Phe-Arg-Trp-Lys)- NH2]	partial agonist	–	–	–	–	–	–	Ki [2]: 323 nM; food intake and rate of change in body weight (Male Sprague-Dawley rats; rat feeding studies, bremelanotide as positive control): reduce food intake and decrease the rate of change in body weight; decrease in food consumption compared to control (Male Sprague-Dawley rats; 0.3 mg/kg, 0-2 and 0-4 hour periods): statistically significant; decrease in food consumption compared to control (Male Sprague-Dawley rats; 1 mg/kg, 0-2, 0-4 and 0-20 hour periods): statistically significant; Ki (hMC3-R): 1050 nM
CC(=O)N[C@H](CCCNC(=N)N)C(=O)N[C@H]1CC(=O)NCCCC[C@@H](C(N)=O)NC(=O)[C@H](Cc2c[nH]c3ccccc23)NC(=O)[C@H](CCCNC(=N)N)NC(=O)[C@@H](Cc2ccccc2)NC(=O)[C@H](CCC(N)=O)NC1=O [compound 71, Ac-D-Arg-cyclo(Asp- Gln-D-Phe-Arg-Trp- Lys)-NH2]	–	45	45	2	–	–	–	–
CC(=O)N[C@@H](CCCNC(=N)N)C(=O)N[C@H]1CCCC(=O)NCC[C@@H](C(N)=O)NC(=O)[C@H](Cc2c[nH]c3ccccc23)NC(=O)[C@H](CCCNC(=N)N)NC(=O)[C@@H](Cc2ccccc2)NC(=O)[C@H](Cc2c[nH]cn2)NC1=O [compound 126, Ac-Arg-cyclo(hGlu-His- D-Phe-Arg-Trp-Dab)- NH2]	agonist	–	–	0.047	1	–	–	–
CC(=O)N[C@@H](CCCNC(=N)N)C(=O)N[C@H]1CCCC(=O)NCC[C@@H](C(N)=O)NC(=O)[C@H](Cc2c[nH]c3ccccc23)NC(=O)[C@H](CCCNC(=N)N)NC(=O)[C@@H](Cc2ccccc2)NC(=O)[C@H](CCN)NC1=O [compound 127, Ac-Arg-cyclo(hGlu-Dab- D-Phe-Arg-Trp-Dab)- NH2]	agonist	–	–	0.06	2	–	–	–
CC(=O)N[C@@H](CCCNC(=N)N)C(=O)N[C@H]1CCNC(=O)CCC[C@@H](C(N)=O)NC(=O)[C@H](Cc2c[nH]c3ccccc23)NC(=O)[C@H](CCCNC(=N)N)NC(=O)[C@@H](Cc2ccccc2)NC(=O)[C@H](CCN)NC1=O [compound 129, Ac-Arg-cyclo(Dab-Dab- D-Phe-Arg-Trp-hGlu)- NH2]	agonist	–	–	0.065	4	–	–	–
CC(=O)N[C@H](CCCNC(=N)N)C(=O)N[C@H]1CCCNC(=O)CC[C@@H](C(N)=O)NC(=O)[C@H](Cc2c[nH]c3ccccc23)NC(=O)[C@H](CCCNC(=N)N)NC(=O)[C@@H](Cc2ccccc2)NC(=O)[C@H](CC(N)=O)NC1=O [compound 156, Ac-D-Arg-cyclo(Orn- Asn-D-Phe-Arg-Trp- Glu)-NH2]	–	–	–	–	–	840	80	–
CC(=O)N[C@@H](CCCNC(=N)N)C(=O)N[C@H]1CCNC(=O)CCC[C@@H](C(N)=O)NC(=O)[C@H](Cc2c[nH]c3ccccc23)NC(=O)[C@H](CCCNC(=N)N)NC(=O)[C@@H](Cc2ccccc2)NC(=O)[C@H](CCC(N)=O)NC1=O [compound 159, Ac-Arg-cyclo(Dab-Gln- D-Phe-Arg-Trp-hGlu)- NH2]	–	4	4	0.825	–	133	26	–
CC(=O)N[C@@H](CCCNC(=N)N)C(=O)N[C@H]1CCCC(=O)NCC[C@@H](C(N)=O)NC(=O)[C@H](Cc2c[nH]c3ccccc23)NC(=O)[C@H](CCCNC(=N)N)NC(=O)[C@@H](Cc2ccccc2)NC(=O)[C@H](CC(N)=O)NC1=O [compound 160, Ac-Arg-cyclo(hGlu-Asn- D-Phe-Arg-Trp-Dab)- NH2] (HELM PEPTIDE1{[ac].R.[O=C([C@H](CCCC(=O)[*:3])N[*:1])[*:2]].N.[dF].R.W.[Dab].[am]}$PEPTIDE1,PEPTIDE1,3:R3-8:R3$$$V2.0)	–	8	8	0.245	–	295	–	–
CC(=O)N[C@@H](CCCNC(=N)N)C(=O)N[C@H]1CCC(=O)NCCC[C@@H](C(N)=O)NC(=O)[C@H](Cc2c[nH]c3ccccc23)NC(=O)[C@H](CCCNC(=N)N)NC(=O)[C@@H](Cc2ccccc2)NC(=O)[C@H](CC(N)=O)NC1=O [compound 161, Ac-Arg-cyclo(Glu-Asn- D-Phe-Arg-Trp-Orn)- NH2]	–	–	–	–	–	155	13	EC50 (hMC4-R [1]; read-out: hMC4-R EC50): 0.413 nM
CC(=O)N[C@@H](CCCNC(=N)N)C(=O)N[C@H]1CCCCNC(=O)C[C@@H](C(N)=O)NC(=O)[C@H](Cc2ccc3ccccc3c2)NC(=O)[C@H](CCCNC(=N)N)NC(=O)[C@@H](Cc2ccccc2)NC(=O)[C@H](CC(N)=O)NC1=O [compound 162, Ac-Arg-cyclo(Lys-Asn- D-Phe-Arg-Nal 2-Asp)- NH2] (HELM PEPTIDE1{[ac].R.K.N.[dF].R.[O=C([C@H](Cc1ccc2ccccc2c1)N[*:1])[*:2]].D.[am]}$PEPTIDE1,PEPTIDE1,3:R3-8:R3$$$V2.0)	–	5	5	0.85	–	255	22	–
